In US5965539A, “Inhibitors of prenyl transferases” (Univeristy of Pittsburgh, priority 1996, dated 1999):
pIC50: −log10 of the molar value. Read-outs that look alike come from different tables or passages of the source.

Columns and labels:
[1] = biological target: T1, FTase (Homo sapiens, UniProt P49356); assay: FTase activity assay: transfer of [3H]farnesyl from FPP to recombinant H-Ras-CVLS, Daudi 60,000xg supernatant; type: biochemical; details: Table 1
T1 construct: FTase and GGTase I activities from 60,000×g supernatants of human Burkitt lymphoma (Daudi) cells; endogenous in cells; host or cells: human Burkitt lymphoma (Daudi) cells, 60,000xg supernatant (partially purified)

[2] = tested on: K-Ras4B processing; assay: K-Ras4B processing assay in NIH 3T3 cells overexpressing oncogenic K-Ras4B; type: cell-based; details: whole cells
Description: H-Ras cells (45) and K-Ras4B Cells (32) were kind gifts from Dr. Channing Der and Dr. Adrienne Cox (University of North Carolina, Chapel Hill). Means of obtaining these cell lines will be easily recognized by the skilled practitioner.

[3] = tested on: oncogenic K-Ras4B activation of MAP kinase; assay: Oncogenic K-Ras4B activation of MAP kinase, immunoblot; type: cell-based; details: 0-30 μM tested
Description: Equal amounts of protein were separated on a 15% SDS-PAGE, transferred to nitrocellulose, and immunoblotted using an anti-MAP kinase antibody (erk2, monoclonal, UB1, Lake Placid, N.Y.). Antibody reactions were visualized using peroxidase-conjugated donkey anti-mouse IgG (Jackson ImmunoResearch Laboratories Inc., West Grove, Pa.) and an enhanced chemiluminescence detection system (ECL, Amersham Corp.)

[4] = tested on: Calu-1 human lung carcinoma; details: 50 mg/kg once daily
Description: Calu-1 (Panel A) and NCI-H810 cells (Panel B) were purchased from ATCC and grown in McCoy's 5A medium in 10% FBS (Fetal Bovine Serum) and RPMI 1640 in 10% FBS, respectively. The cells were harvested, resuspended in PBS and injected s.c. into the right and left flank of 8 week old female nude mice (10^7 cells/flank). Nude mice (Harlan Sprague Dawley, Indianapolis, Ind.) were maintained in accordance with the Institutional Animal Care and Use Committee (IACUC) procedures and guidelines. On day 32 after s.c. implantation of tumors, animals were dosed i.p. with 0.2 ml once daily for 36 days. […] The tumor volumes were determined by measuring the length (l) and the width (w) and calculating the volume (V=(l)×(w)^2 /2). Data are presented as the average volume of eight tumors in each group for each cell line. Statistical significance between control and treated groups were evaluated by using student t test (*P<0.05).
In this model, tumors from two human lung carcinoma cell lines are implanted subcutaneously. One of these (Calu-1) harbors a K-Ras oncogenic mutation and has a deletion of the tumor suppressor gene p53. The other human lung carcinoma ([…]) has no Ras mutations.

[5] = tested on: H-RasF transformed NIH 3T3 cells; details: 50 mg/kg once daily
Description: A. Antitumor efficacy was carried out as described in FIG. 3 except that animals were randomly assigned to four groups each of 4 mice each (2 tumors per mouse). […] B. Ras processing was carried out 5 hours after the last treatement on day 17. Tumors were extracted from the animals, tissumized, and lysed in lysis buffer as described in FIG. 1. Lysates (25 μg) were electrophoresed on a 12.5% SDS-PAGE and immunoblotted with anti-Ras antibody Y13-238 as described previously. The blots were then reprobed with anti-Rap1A antibody (Santa Cruze Biotechnologies, Santa Cruz, Calif.).
The tumor sizes at the end of 17 days were 2490 mm^3 for saline, 1793 mm^3 for 10 mg/kg, 1226 mm^3 for 50 mg/kg and 624 mm^3 for 100 mg/kg treated animals. […] Tumors from control animals contained only fully processed Ras which migrates faster in SDS-PAGE gels (FIG. 11B). […] Thus, the extent of tumor growth inhibition correlated with the extent of inhibition of Ras processing.

[6] = tested on: Ras nucleotide state; details: H-RasF cells
Description: H-RasF cells were seeded and treated as above for Ras/Raf interaction and Ras and Rap1A processing. On day 2, however, cells were labeled overnight with [^32 P] orthophosphate at 100 μCi/mo (Amersham PBS13) in 10 ml DMEM-phosphate supplemented with 10% calf serum, 1 mg/ml BSA and 20 mM HEPES, pH 7.5. On day 3, the medium was removed and cells were washed one time in ice-cold PBS, scraped from the plate with a cell scraper, collected and centrifuged. The cell pellet was resuspended in ice-cold hypotonic buffer listed above and the cytosol and membrane fractions were separated according to the above description for Ra/Raf association. The cytosol and membrane fractions were lysed on ice for 60 min in 50 mM Tris, pH 7.5, 5 mM MgCl2, 1% Triton X-100 (TX-100), 0.5% DOC, 0.05% SDS, 500 mM NaCl, 1 mM EGTA, 10 μg/ml aprotinin, 10 μg/ml soybean trypsin inhibitor, 25 μg/ml leupeptin, 1 mM DTT, 1 mg/ml BSA. Lysates were cleared and equal amounts of protein were immunoprecipitated using anti-Ras antibody (Y13-259) along with 30 μl Protein A-Agarose goat anti-rat IgG complex (Oncogene Science) for 60 min at 4° C. […] Plates were analyzed by autoradiogram.

[7] = tested on: Raf-1 kinase; details: H-RasF cells
Description: Raf-1 kinase was assayed by determining the ability of Raf to transfer phosphate from [γ-^32 P] ATP to a 19-mer peptide containing an autophosphorylation site. Membrane and cytosol fraction isolation and Raf immunoprecipitates were washed three times with cold HEPES buffer and twice with kinase buffer (50 mM Tris, pH 7.5, 150 mM NaCl, 12 mM MnCl2, 1 mM DTT, 0.2% Tween 20. Immune complex kinase assays were performed by incubating immunoprecipitaes from membrane and cytosol fractions in 96 μl of kinase buffer with 20 μCi of [γ-^32 P]ATP (10 mCi/ml, Amersham) and 2 μl of the Raf-1 substrate peptide (1 mg/ml, Promega) for 30 min at 25° C. The sequence of the Raf-1 substrate peptide is [sequence]. The phosphorylation reaction was terminated by spotting 50 μl aliquots of the assay mixture onto Whatman P81 for 40 min in 0.5% orthophosphoric acid and air dried. The amount of ^32 P incorporated was determined by liquid scintillation counting.

[8] = tested on: H-RasGG activation of MAPK; details: 5 μM, FIG. 5B
[9] = tested on: Raf-transformed NIH 3T3 cells; details: 50 mg/kg once daily

T1 sequence (P49356 whole entry): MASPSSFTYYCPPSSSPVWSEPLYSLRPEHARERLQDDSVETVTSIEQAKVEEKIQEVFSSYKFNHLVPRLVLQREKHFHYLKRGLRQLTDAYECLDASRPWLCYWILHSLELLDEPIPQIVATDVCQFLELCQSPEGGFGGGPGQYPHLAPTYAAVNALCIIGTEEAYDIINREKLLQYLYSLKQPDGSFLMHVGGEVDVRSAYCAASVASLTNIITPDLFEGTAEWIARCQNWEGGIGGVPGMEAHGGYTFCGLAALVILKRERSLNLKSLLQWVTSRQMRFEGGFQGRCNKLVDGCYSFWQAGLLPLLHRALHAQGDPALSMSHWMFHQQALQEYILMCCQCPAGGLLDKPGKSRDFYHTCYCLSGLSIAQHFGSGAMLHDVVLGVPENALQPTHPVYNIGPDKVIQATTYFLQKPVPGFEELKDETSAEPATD

`COC(=O)[C@H](CCSC)NC(=O)c1ccc(NC[C@@H](N)CS)cc1-c1ccccc1` [FTI-277, 4-N-[2(R)-Amino-3-mercaptopropyl]amino-2-phenylbenzoyl methionine methyl ester] showed a GG/F ([1]; ratio GGTase I IC50 / FTase IC50) of 32, a pIC50 ([1]; read-out: FTase IC50) of 7.30 and a pIC50 ([2]; Table 5, read-out: In Vivo Processing IC50 K-Ras) of 5.00. For the same compound, the pIC50 ([2]; read-out: K-Ras4B processing IC50) was 5.00, the “lowest concentration inhibiting K-Ras4B MAP kinase activation” value [3] was 30 µM and the “tumor growth of Calu-1” value [4] was “inhibited the growth of Calu-I cells to the same extent”. The “tumor growth of H-RasF transformed NIH 3T3 cells” value [5] was “inhibited tumor growth”, the “nucleotide state of non-farnesylated cytosolic Ras” value [6] was “GTP bound” and the “oncogenic Ras-F induced activation of Raf kinase in the plasma membrane” value [7] was “suppressed this activation”. The “block of H-RasGG activation of MAPK” value [8] was “able to block H-RasF but not H-RasGG activation of MAPK” and the “growth of Raf-transformed NIH 3T3 cells” value [9] was “had no effect”.
